These results are taken from patent publication US20150126534A1, “ENZYME AND RECEPTOR MODULATION” (Chroma Therapeutics Ltd, priority 2005, published 2015).

Assay [1] relates to U937 cells (monocytic cell line). As to the kind of experiment: Cell proliferation inhibition assay (WST-1), U937. The format is cell-based. The note with it: for IC50: Homo sapiens. The procedure: (§1) Following 24 h of growth cells were treated with compound. Plates were then re-incubated for a further 72-96 h before a WST-1 cell viability assay was conducted according to the suppliers (Roche Applied Science) instructions.
(§2) Data were expressed as a percentage inhibition of the control, measured in the absence of inhibitor, as follows: —
(§3) where S^i is the signal in the presence of inhibitor and S^o is the signal in the presence of DMSO.
(§4) Dose response curves were generated from 8 concentrations (top final concentration 10 μM, with 3-fold dilutions), using 6 replicates.

Assay [2] deals with HCT116 (non-monocytic cell line). As to the kind of experiment: Cell proliferation inhibition assay (WST-1), HCT116. The format is cell-based. Conditions: for Ratio IC50 cell/enzyme: HCT116 cell proliferation IC50 / DHFR enzyme IC50; for IC50: Homo sapiens. The procedure: as §1, §2, §3, §4
A further assay addresses T1, human aurora kinase A (Homo sapiens, UniProt O14965).
T1 construct: recombinant, full length human aurora kinase A, N-terminally fused to GST; GST (N); purchased ProQuinase (so in the source); host or cells: baculovirus / Sf21 insect cells
T1 sequence (O14965 1-403): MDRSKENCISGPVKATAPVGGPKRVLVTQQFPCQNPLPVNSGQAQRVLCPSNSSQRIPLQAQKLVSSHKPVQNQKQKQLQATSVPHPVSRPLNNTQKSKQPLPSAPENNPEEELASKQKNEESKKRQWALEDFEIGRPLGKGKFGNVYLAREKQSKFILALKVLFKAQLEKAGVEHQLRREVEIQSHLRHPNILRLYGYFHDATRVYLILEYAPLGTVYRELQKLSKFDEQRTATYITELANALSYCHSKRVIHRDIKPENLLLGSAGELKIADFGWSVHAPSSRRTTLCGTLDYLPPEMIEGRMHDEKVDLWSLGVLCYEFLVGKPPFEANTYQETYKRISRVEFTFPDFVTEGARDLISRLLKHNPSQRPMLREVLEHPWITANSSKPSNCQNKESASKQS
As to the kind of experiment: Aurora kinase A inhibitory activity assay (Flashplate, 33P-ATP). The class given is biochemical. The note with it: 10 μM ATP; read-out: Enzyme inhibition IC50 nM (Aurora kinase A). The procedure:
The ability of compounds to inhibit aurora kinase A activity was measured using a microplate assay. In brief, 96-well Flashplates® (PerkinElmer Life Sciences) were pre-coated with myelin basic protein (MBP). MBP (100 ul of […] in PBS) was incubated at 37° C. for 1 h, followed by overnight incubation at 4° C. Plates were then washed with PBS and allowed to air dry.
Wells lacking inhibitor were used as vehicle controls and wells containing no enzyme were used to measure the ‘background’ signal. Plates were incubated overnight at 30° C. After incubation the contents of the wells were removed and the plates washed three times with PBS containing 10 mM tetra sodium pyrophosphate prior to scintillation counting using a Wallac MicroBeta TriLux.
Dose response curves were generated from 10 concentrations (top final concentration 10 μM, with 3-fold dilutions), using triplicate wells.
[…] values were determined by non-linear regression analysis, after fitting the data point results to the equation for sigmoidal dose response with variable slope (% activity against log concentration of compound), using Xlf it software.

Assay [3] deals with TNFα production in human whole blood. The assay can be described thus: LPS-stimulation of human whole blood, TNF-α ELISA. The format is cell-based. Conditions: for IC50: Homo sapiens, 6 h; for Ratio IC50 WB/enzyme: whole blood TNFα IC50 / P38 MAP kinase IC50. The method, then:
Whole blood was taken by venous puncture using heparinised vacutainers (Becton Dickinson) and diluted in an equal volume of RPMI1640 tissue culture media. 100 μl was plated in V-bottomed 96 well tissue culture plates. Inhibitor was added in 100 μl of RPMI1640 media, and 2 h later the blood was stimulated with LPS (E coli strain 005:B5, Sigma) at a final concentration of 100 ng/ml and incubated at 37° C. in 5% CO2 for 6 h. TNF-α levels were measured from cell-free supernatants by sandwich ELISA (R&D Systems #QTA00B).

The next assay concerns the target T2, p38 MAP kinase α (Homo sapiens, UniProt Q16539).
T2 construct: full length human enzyme expressed in E coli as an N-terminally GST-tagged protein; GST (N); purchased Upstate (Dundee UK), assay run by the vendor; host or cells: E. coli
The assay can be described thus: P38 MAP kinase α inhibitory activity assay. The class given is biochemical. Conditions: ATP 90 μM; read-out: Enzyme inhibition IC50 nM (P38 MAP kinase). The method, then:
The ability of compounds to inhibit p38 MAP kinase α (full length human enzyme expressed in E coli as an N-terminally GST-tagged protein) activity was measured in an assay performed by Upstate (Dundee UK). […] The reaction was initiated by the addition of the MgATP mix. After incubation for 40 minutes at room temperature, the reaction was stopped by the addition of 5 μl of a 3% phosphoric acid solution. 10 μl of the reaction was then spotted onto a P30 filtermat and washed three times for 5 minutes in 75 mM phosphoric acid and once in methanol, prior to drying and scintillation counting.
Dose response curves were generated from a ½ log dilution series of a stock inhibitor solution in DMSO. Nine dilutions steps were made from a top, final concentration of 10 μM, and a ‘no compound’ blank was included. Samples were run in duplicate. Data from scintillation counts were collected and subjected to free-fit analysis by Graphpad Prism software. From the curve generated, the concentration giving 50% inhibition was determined.

Setting [4] is: U-937, read-out: Cell proliferation IC50 nM (U937 cells).
Where [5] appears, read: U937 cell proliferation IC50 / DHFR enzyme IC50.
Setting [6] is: U-937, U937 monocytic cell line, read-out: Cell proliferation IC50 nM (U937 cells).
The mark [7] stands for this setting: HCT-116, HCT116 non-monocytic cell line, read-out: Cell proliferation IC50 nM (HCT116).
[8] abbreviates: U937 cell proliferation IC50 / Aurora kinase A IC50.
Setting [9] is: LPS 100 ng/ml, read-out: Inhibition of TNFα production in human whole blood IC50.

Where a name gives a salt, the structure may show the parent alone. Read-outs that look alike come from different tables or passages of the source.

T2 sequence (Q16539 whole entry): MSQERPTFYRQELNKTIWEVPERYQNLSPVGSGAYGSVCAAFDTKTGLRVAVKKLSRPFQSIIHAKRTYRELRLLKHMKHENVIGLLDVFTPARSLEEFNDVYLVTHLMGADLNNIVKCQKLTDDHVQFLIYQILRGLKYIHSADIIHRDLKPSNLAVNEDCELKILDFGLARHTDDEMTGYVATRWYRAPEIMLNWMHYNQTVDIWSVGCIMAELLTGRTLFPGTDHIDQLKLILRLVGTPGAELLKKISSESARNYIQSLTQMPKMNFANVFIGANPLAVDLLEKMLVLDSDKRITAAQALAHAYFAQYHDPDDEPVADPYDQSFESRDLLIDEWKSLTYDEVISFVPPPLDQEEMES

`COc1cc(NCc2cnc3nc(N)nc(N)c3c2C)cc(OC)c1OC` [Compound 2 G = N, 5-Methyl-6-((3,4,5-trimethoxyphenylamino)methyl)pyrido[2,3-d]pyrimidine-2,4-diamine, reference compound]: the IC50 in assay [1] (setting [4]) was 2200 nM; in assay [2] (HCT-116, read-out: Cell proliferation IC50 nM (HCT116)) it was 1700 nM. For the same compound, the figures for the “Ratio IC50 cell/enzyme” value in assay [1] (setting [5]) and in assay [2] were 220 and 170, respectively. The “selectivity between a monocytic and non-monocytic cell line (cell proliferation)” value in assay [1] (U937 versus HCT116) is recorded as “no selectivity”.

Turning to `Cc1c(CNc2ccc(OCC[C@H](N)C(=O)OC3CCCC3)cc2)cnc2nc(N)nc(N)c12` [Compound 3, (S)-2-Amino-4-{4-[(2,4-diamino-5-methyl-pyrido[2,3-d]pyrimidin-6-ylmethyl)-amino]-phenoxy}-butyric acid cyclopentyl ester], the figures for the IC50 in assay [1] (setting [6]) and in assay [2] (setting [7]) were 5100 nM and 7300 nM, respectively. The results for the “Ratio IC50 cell/enzyme” value in assay [1] (setting [5]) and in assay [2] were 1.9 and 1.4, respectively.

As for `Cc1c(CNc2ccc(C(=O)N[C@@H](CC(C)C)C(=O)OC3CCCC3)cc2)cnc2nc(N)nc(N)c12` [Compound 6, (S)-2-{4-[(2,4-Diamino-5-methyl-pyrido[2,3-d]pyrimidin-6-ylmethyl)-amino]-benzoylamino}-4-methyl-pentanoic acid cyclopentyl ester], the IC50 in assay [1] (setting [6]) amounted to 23 nM; in assay [2] (setting [7]), 110 nM. Further, the “Ratio IC50 cell/enzyme” value in assay [1] (setting [5]) was 0.013; in assay [2], 0.04. Also, the figures for the “fold more potent than the unmodified analogue (2 G=N)” value in assay [1] (U937 cells) and in assay [2] (HCT116) were 100 fold and 15 fold, respectively.

In the case of `O=C(CCCCCCC(=O)Nc1ccccc1)NO` [Compound 7, Suberoylanilide hydroxamic acid, reference compound], the IC50 in assay [1] (setting [4]) came out at 400 nM.

For `COc1cc2nccc(Oc3ccc(NC(=O)c4ccccc4)cc3)c2cc1OC` [Compound 11, N-{4-(7-methoxy-6-methoxy-quinoline-4-yloxy)-phenyl}-benzamide, reference compound], the IC50 was 430 nM in assay [1] (setting [6]) and 350 nM at human aurora kinase A. In addition, the “Ratio IC50 cell/enzyme” value in assay [1] (setting [8]) was determined as 1.3.

For the compound `COc1cc2c(Oc3ccc(NC(=O)c4ccccc4)cc3)ccnc2cc1OCC[C@H](N)C(=O)OC1CCCC1` [Compound 12, (S)-2-amino-4-[4-(4-benzoylamino-phenoxy)-6-methoxy-quinolin-7-yloxy]-butyric acid cyclopentyl ester], the IC50 came to 3.5 nM in assay [1] (setting [6]) and 2300 nM on human aurora kinase A. Besides, the “Ratio IC50 cell/enzyme” value in assay [1] (setting [8]) came to 0.0015.

On to `COc1cc2c(Oc3ccc(NC(=O)c4ccccc4)cc3)ccnc2cc1OCC[C@H](N)C(=O)O` [Compound 13], for which the IC50 in assay [1] (setting [6]) was greater than 5000 nM; on human aurora kinase A, 500 nM.

As to `COc1cc2c(Oc3ccc(NC(=O)c4ccccc4)cc3)ccnc2cc1OCC[C@H](N)C(=O)OC(C)(C)C` [Compound 14, (S)-2-Amino-4-[4-(4-benzoylamino-phenoxy)-6-methoxy-quinolin-7-yloxy]-butyric acid tert-butyl ester], the IC50 in assay [1] (setting [6]) amounted to 75 nM; on human aurora kinase A, 3000 nM. In addition, in assay [1] (U937 cell proliferation), the “fold less active in the cell assay than cyclopentyl ester (Compound 12)” value is roughly 20 fold. The “Ratio IC50 cell/enzyme” value in assay [1] (setting [8]) stood at 0.025.

With `Nc1c(C(=O)c2ccc(F)cc2F)ccc(=O)n1-c1c(F)cccc1F` [Compound 15, 6-Amino-5-(2,4-difluoro-benzoyl)-1-(2,6-difluoro-phenyl)-1H-pyridin-2-one, reference compound], the figures for the IC50 (in assay [3] (setting [9]); on p38 MAP kinase α) were 300 nM and 50 nM, respectively. The “Ratio IC50 WB/enzyme” value in assay [3] was found to be 6.

In the case of `Nc1c(C(=O)c2ccc(F)cc2F)ccc(=O)n1-c1c(F)cc(OCC[C@H](N)C(=O)OC2CCCC2)cc1F` [Compound 16, cyclopentyl (S)-2-Amino-4-(4-[6-amino-5-(2,4-difluorobenzoyl)-2-oxo-2H-pyridin-1-yl]-3,5-difluorophenoxy)butanoate trifluoroacetate], the results for the IC50 (in assay [3] (read-out: Inhibition of TNFα production in human whole blood IC50 nM); on p38 MAP kinase α) were 20 nM and 25 nM, respectively. Besides, the “Ratio IC50 WB/enzyme” value in assay [3] stood at 0.8.

As for `Nc1c(C(=O)c2ccc(F)cc2F)ccc(=O)n1-c1c(F)cc(OCC[C@H](N)C(=O)O)cc1F` [Compound 17, (S)-2-Amino-4-(4-[6-amino-5-(2,4-difluorobenzoyl)-2-oxo-2H-pyridin-1-yl]-3,5-difluorophenoxy)butanoic acid], at p38 MAP kinase α, the IC50 stood at 30 nM.

In the case of `CC(C)(C)OC(=O)[C@@H](N)CCOc1cc(F)c(-n2c(N)c(C(=O)c3ccc(F)cc3F)ccc2=O)c(F)c1` [Compound 18, (S)-2-Amino-4-{4-[6-amino-5-(2,4-difluoro-benzoyl)-2-oxo-2H-pyridin-1-yl]-3,5-difluoro-phenoxy}-butyric acid tert-butyl ester], the IC50 stood at 750 nM in assay [3] (setting [9]) and 40 nM on p38 MAP kinase α. The “Ratio IC50 WB/enzyme” value in assay [3] is given as 18.

Turning to `COc1cc2c(Oc3ccc(NC(=O)c4ccccc4)cc3)ccnc2cc1OCC[C@H](NC1CCCCC1)C(=O)OC1CCCC1` [Compound 25, (S)-4-[4-(4-Benzoylamino-phenoxy)-6-methoxy-quinolin-7-yloxy]-2-cyclohexylamino-butyric acid cyclopentyl ester], the IC50 turned out to be 1900 nM in assay [1] (setting [6]) and 6100 nM in assay [2] (setting [7]).
